In US8003665B2, “Salts and polymorphs of a potent antidiabetic compound” (Amgen Inc., priority 2003, dated 2011):

Assay: Moisture sorption/desorption (hygroscopicity)
Format: physicochemical
Protocol: Moisture sorption/desorption data were collected on a VTI SGA-100 Vapor Sorption Analyzer. Sorption and desorption data were collected over a range of 5% to 95% relative humidity (“RH”) at 10% RH intervals under nitrogen purge. Samples were not dried prior to analysis. Equilibrium criteria used for analysis were less than 0.0100% weight change in 5 minutes, with a maximum equilibration time of 3 hours if the weight criterion was not met. Data were not corrected for the initial moisture content of the samples. NaCl and PVP were used as calibration standards. This example illustrates the differential scanning calorimetry (DSC) and hygroscopicity analysis of Form I prepared according to Example 6.

weight loss (moisture desorption, from 95% to 25% relative humidity): 0.6%
weight gain (moisture sorption, from 25% to 95% relative humidity): 0.6%
Structure (SMILES): O=S(=O)(Nc1cc(Cl)c(Oc2cnc3ccccc3c2)c(Cl)c1)c1ccc(Cl)cc1Cl.O=S(=O)(O)c1ccccc1 [Form I, 2,4-Dichloro-N-[3,5-dichloro-4-(quinolin-3-yloxy)-phenyl]-benzenesulfonamide benzenesulfonate salt]
